In brackets after ≈: the same amount, converted by molar mass. Where only a bound is given, the exact number is not on record here.

This is an account of results in US7332476B2, “Pyridyl substituted ketolide antibiotics” (Novartis AG, priority 2003, dated 2008).

The test system of data set [1] is Enterococcus faecalis Enfa_29212. The data set is described as follows: MIC, broth microdilution (NCCLS). In kind it is cell-based. The conditions noted are these: in µg/mL (unit assumed); for MIC: Table 10, Strain ID E (Table 8): Enterococcus faecalis Enfa_29212. In outline:
(§1)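 NCCLS broth microdilution with 2-fold serial drug dilutions (methanol stocks diluted in water); inoculum 3×10^5–7×10^5 CFU/ml in CAMHB, with 2-5% lysed horse blood for S. pneumoniae. Incubation 18-24 h at 35° C., ambient air, except S. pneumoniae (5-10% CO2). MIC is lowest concentration preventing visible growth.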
A general note: Broth dilution looks for growth in wells or tubes with falling amounts of substance.

Data set [2] deals with Staphylococcus aureus Stau_29213. The data set is described as follows: MIC, broth microdilution (NCCLS). It counts as cell-based. The conditions noted are these: in µg/mL (unit assumed); for MIC: Table 10, Strain ID A (Table 8): Staphylococcus aureus Stau_29213. The gist of the method:
as §1

Data set [3] concerns Streptococcus pneumoniae Stpn_Erm S 4297. The data set is described as follows: MIC, broth microdilution (NCCLS). It counts as cell-based. The conditions noted are these: for MIC: Table 10, Strain ID R (Table 8): Streptococcus pneumoniae Stpn_Erm S 4297. In outline: as §1
The test system of data set [4] is Streptococcus pneumoniae Stpn_Mef S 3427. The data set is described as follows: MIC, broth microdilution (NCCLS). It counts as cell-based. As to conditions: Table 10, Strain ID Q (Table 8): Streptococcus pneumoniae Stpn_Mef S 3427; in µg/mL (unit assumed). In outline:
as §1

Data set [5] relates to Enterococcus faecalis Enfa_bc 11148-2. The data set is described as follows: MIC, broth microdilution (NCCLS). It counts as cell-based. The conditions noted are these: in µg/mL (unit assumed); for MIC: Table 10, Strain ID F (Table 8): Enterococcus faecalis Enfa_bc 11148-2. The gist of the method: (§2)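 MIC read visually as lowest drug concentration with no growth after 18-24 h at 35° C; ambient air for staphylococci and enterococci, 5-10% CO2 for H. influenzae. Inoculum 3×10^5–7×10^5 CFU/ml; CAMHB or Haemophilus Test Medium.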

The test system of data set [6] is Haemophilus influenzae Hain_2762. The data set is described as follows: MIC, broth microdilution (NCCLS). It counts as cell-based. The conditions noted are these: in µg/mL (unit assumed); for MIC: Table 10, Strain ID L (Table 8): Haemophilus influenzae Hain_2762. In outline:
as §2

Data set [7] concerns Haemophilus influenzae Hain_953460299-3. The data set is described as follows: MIC, broth microdilution (NCCLS). In kind it is cell-based. The conditions noted are these: in µg/mL (unit assumed); for MIC: Table 10, Strain ID K (Table 8): Haemophilus influenzae Hain_953460299-3. The gist of the method: as §2
Data set [8] concerns Haemophilus influenzae Hain_960730503-3. The data set is described as follows: MIC, broth microdilution (NCCLS). It counts as cell-based. As to conditions: in µg/mL (unit assumed); for MIC: Table 10, Strain ID I (Table 8): Haemophilus influenzae Hain_960730503-3. The gist of the method:
as §2

Data set [9] relates to Haemophilus influenzae Hain_960820544-3. The data set is described as follows: MIC, broth microdilution (NCCLS). In kind it is cell-based. As to conditions: in µg/mL (unit assumed); for MIC: Table 10, Strain ID J (Table 8): Haemophilus influenzae Hain_960820544-3. In outline:
as §2

Data set [10] concerns Staphylococcus aureus Stau_33591. The data set is described as follows: MIC, broth microdilution (NCCLS). In kind it is cell-based. As to conditions: unit assumed; for MIC: Table 10, Strain ID B (Table 8): Staphylococcus aureus Stau_33591. In outline: as §2
The subject of data set [11] is Streptococcus pneumoniae Stpn_280-962. The data set is described as follows: MIC, broth microdilution (NCCLS). In kind it is cell-based. Also noted: MIC, strain ID O: unit not given beside the values. As to conditions: for MIC: Table 10, Strain ID O (Table 8): Streptococcus pneumoniae Stpn_280-962. In outline: as §1
Data set [12] relates to Streptococcus pneumoniae Stpn_Mef 5654. The data set is described as follows: MIC, broth microdilution (NCCLS). In kind it is cell-based. Also noted: MIC, strain ID R: unit not given beside the values. The conditions noted are these: for MIC: Table 10, Strain ID P (Table 8): Streptococcus pneumoniae Stpn_Mef 5654, in µg/mL (unit assumed). The gist of the method: as §1
Data set [13] is described as follows: In vivo pharmacokinetic study in rats, whole lung (IV and PO). The conditions noted are these: male, Sprague-Dawley, 5 mg/kg, rat; for half-life: IV, whole lung, read-out: t1/2, IV Lung (converted); for Kp: lung/plasma, iv, read-out: L/P ratio, IV. The procedure:
Animal Models. A total of 54 male Sprague-Dawley rats, weighing 200 grams in average, were evaluated for pharmacokinetic studies of representative pyridyl substituted ketolides. Rats were under overnight food restriction and received water ad libitum. Rats were acclimated for approximately 5 days before antibiotic administration.
Antibiotic Administration. Rats were given bolus administration through (IV) and oral (PO) routes. Representative pyridyl substituted ketolides and telithromycin, for comparison, were diluted in 0.85% saline to a concentration of 15.0 mg/ml, and the resulting pH was adjusted using 1N acetic acid until the compound was in solution. Approximately 200 microliters of the compound solution was administered to the rats. The target dose for IV and PO administration was 5 mg/kg and 15 mg/kg, respectively.
Sample Collection. Plasma and whole lung samples were collected from the rats. Plasma samples were obtained from blood samples by centrifugation at 3000 RPM for 10 min. Heparin was added in the plasma as an anticoagulant. Whole lung samples were homogenized in deionized water. Samples were stored at −80° C. A total of 9 time points were collected in triplicate at 0.083, 0.25, 0.5, 1, 2, 4, 6, 8, and 24 hrs. Ketolide concentrations in plasma and lung were determined by well-established non-GLP LC-MS-MS methods. PK parameters were estimated from the raw bioanalytical data using WinNolin software (Version 4.0, Pharsight Corporation, CA). […] All representative compounds were compared to telithromycin.

In the case of `CC[C@H]1OC(=O)[C@H](C)C(=O)[C@H](C)[C@@H](O[C@@H]2O[C@H](C)C[C@H](N(C)C)[C@H]2O)[C@](C)(OC)C[C@@H](C)C(=O)[C@H](C)[C@H]2N(CCCCn3cnc(-c4cccnc4)c3)C(=O)O[C@]12C` [Telithromycin, telithromycin, reference compound], the MIC is on record as 0.1-0.2 in [1]; 0.1-0.2 in [2]; “=0.1” in data set [3]; 0.1-0.2 in data set [4]; 0.4-0.78 in data set [5]; 0.78-1.56 in [6]. Besides, the MIC in [7] was 3.13-6.25; in data set [8] it was 3.13-6.25; in [9] it was 3.13-6.25; in [10] it was above 50 µg/mL; in data set [11], “=0.05”; in data set [12], 0.2-0.78. For the same molecule, the “MIC, strain ID E” value in [1] (strain ID E, broth microdilution) is reported as 0.1-0.2. Also, in data set [2] (strain ID A, broth microdilution), the “MIC, strain ID A” value was 0.1-0.2. Moreover, the “MIC, strain ID Q” value in [3] (strain ID Q, broth microdilution, in µg/mL (unit assumed)) was 0.1-0.2. The “MIC, strain ID F” value in data set [5] (strain ID F, broth microdilution) was 0.4-0.78. The “MIC, strain ID L” value in [6] (strain ID L, broth microdilution) was 0.78-1.56. Besides, the “MIC, strain ID K” value in [7] (strain ID K, broth microdilution) is 3.13-6.25. Besides, the “MIC, strain ID I” value in data set [8] (strain ID I, broth microdilution) is 3.13-6.25. Moreover, the “MIC, strain ID J” value in [9] (strain ID J, broth microdilution) is on record as 3.13-6.25. The molecule also had an MIC, strain ID B in [10] (strain ID B, broth microdilution) above 50 µg/mL. Moreover, the “MIC, strain ID O” value in data set [11] (strain ID O, broth microdilution) is reported as “=0.05”. For the same molecule, the “MIC, strain ID R” value in data set [12] (strain ID R, broth microdilution) is on record as “=0.1”. The half-life in data set [13] was 1.3 h. The Kp in [13] was 16.
As for `CC[C@H]1OC(=O)[C@@](C)(F)C(=O)[C@H](C)[C@@H](OC2O[C@H](C)C[C@H](N(C)C)[C@H]2O)[C@@](C)(OC)C[C@@H](C)C(=O)[C@H](C)[C@H]2N(CCCCn3cnc(-c4ccc(C)nc4)c3)C(=O)O[C@]12CC` (stereo partly shown) [XIV], the MIC is 0.2 in data set [1]; 0.2 in [2]; 0.1 µg/mL (≈ 0.117 µM) in data set [3] (unit assumed); 0.1 in [4]; 1.56 in [5]; 1.56 in [6]. Also, the MIC in [7] was 6.25; in data set [8], 6.25; in data set [9] it was 6.25; in data set [10], above 50 µg/mL; in data set [11], “=0.05”; in data set [12] it was 0.78. In addition, the half-life in data set [13] was 3.6 h. Moreover, the Kp in [13] amounted to 83.
For `C=C[C@]12OC(=O)N(CCCCn3cnc(-c4ccc(OC)nc4)c3)[C@@H]1[C@@H](C)C(=O)[C@H](C)C[C@](C)(OC)[C@H](OC1O[C@H](C)C[C@H](N(C)C)[C@H]1O)[C@@H](C)C(=O)[C@@H](C)C(=O)O[C@@H]2CC` (stereo partly shown) [XVIII], the MIC in data set [1] was 0.1; in data set [2], 0.2; in data set [3] (unit assumed) it was 0.1 µg/mL (≈ 0.117 µM); in data set [4], 0.2; in data set [5], 0.78; in [6], 1.56. The MIC is 6.25 in [7]; 6.25 in data set [8]; 6.25 in [9]; above 50 µg/mL in data set [10]; “=0.05” in [11]; 0.78 in data set [12]. The half-life in data set [13] was 3.1 h. Moreover, in data set [13], the Kp worked out at 110.
As for `C=C[C@]12OC(=O)N(CCCCn3cnc(-c4ccc(C)nc4)c3)[C@@H]1[C@@H](C)C(=O)[C@H](C)C[C@](C)(OC)[C@H](OC1O[C@H](C)C[C@H](N(C)C)[C@H]1O)[C@@H](C)C(=O)[C@@H](C)C(=O)O[C@@H]2CC` (stereo partly shown) [XVI], the MIC in data set [1] is 0.1; in [2], 0.2; in data set [3], “=0.05”; in [4], 0.1; in [5], 0.78; in data set [6] it was 1.56. Further, the MIC in data set [7] is 6.25; in data set [8], 6.25; in [9], 6.25; in data set [10], above 50 µg/mL; in [11] it was “=0.05”; in [12], 0.78. The half-life in data set [13] is 3.4 h. Besides, the Kp in [13] turned out to be 80.
